US9873680B2 (Gilead Sciences, Inc., priority 2014, dated 2018)

What was measured:
[1] = system: HIV-IIIb; assay: Test A: Antiviral Assay in MT4 Cells; type: cell-based, HIV-1; settings: Human immunodeficiency virus 1, MT4, 120 h; 0.2 μM drug concentration; MT-4 cells infected with HIV-IIIb, 5 days; values normalized to 100%; average over time; read-out: % inhibition at 0.2 μM (percent inhibition of virus-induced cell killing)
Procedure, shortened: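 MT-4 cells were preinfected with HIV-IIIb […]. Cell viability, as protection from viral cytopathic effect, was read by CellTiter-Glo chemiluminescence.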

[2] = Test B: Cytotoxicity Assay; type: cell-based; settings: human, uninfected MT-4 cells, CellTiter-Glo
Description: Test B: Cytotoxicity Assay Compound cytotoxicity and the corresponding CC50 values was determined using the same protocol as described in the antiviral assay (Test A) except that uninfected cells were used.

SMILES | inhibition at 0.2 µM [1] [%] | CC50 at 5 days [2] [µM]
Cn1nc(NS(C)(=O)=O)c2c(Cl)ccc(-c3ccc(C#CC(C)(C)n4ccnc4)nc3[C@H](Cc3cc(F)cc(F)c3)NC(=O)Cn3nc(C(F)F)c4c3C(F)(F)[C@@H]3C[C@H]43)c21 [Compound 80, N—((S)-1-(6-(3-(1H-imidazol-1-yl)-3-methylbut-1-yn-1-yl)-3-(4-chloro-1-methyl-3-(methylsulfonamido)-1H-indazol-7-yl)pyridin-2-yl)-2-(3,5-difluorophenyl)ethyl)-2-((3bS,4aR)-3-(difluoromethyl)-5,5-difluoro-3b,4,4a,5-tetrahydro-1H-cyclopropa[3,4]cyclopenta[1,2-c]pyrazol-1-yl)acetamide] | 89 | 20.9
Cn1nc(NS(C)(=O)=O)c2c(Cl)ccc(-c3ccc(C#CC4(O)CC(F)(F)C4)nc3[C@H](Cc3cc(F)cc(F)c3)NC(=O)Cn3nc(C(F)(F)F)c4c3C(F)(F)[C@@H]3C[C@H]43)c21 [Compound 103, N—((S)-1-(3-(4-chloro-1-methyl-3-(methylsulfonamido)-1H-indazol-7-yl)-6-((3,3-difluoro-1-hydroxycyclobutyl)ethynyl)pyridin-2-yl)-2-(3,5-difluorophenyl)ethyl)-2-((3bS,4aR)-5,5-difluoro-3-(trifluoromethyl)-3b,4,4a,5-tetrahydro-1H-cyclopropa[3,4]cyclopenta[1,2-c]pyrazol-1-yl)acetamide] | 100 | 9.21
Cc1cc2ncn(CC(=O)N[C@@H](Cc3cc(F)cc(F)c3)c3nc(C#CC4(O)CCOCC4)ccc3-c3ccc4n[nH]c(=O)n4c3C)c2cc1C [Compound 3D, (S)—N-(2-(3,5-difluorophenyl)-1-(6-((4-hydroxytetrahydro-2H-pyran-4-yl)ethynyl)-3-(5-methyl-3-oxo-2,3-dihydro-[1,2,4]triazolo[4,3-a]pyridin-6-yl)pyridin-2-yl)ethyl)-2-(5,6-dimethyl-1H-benzo[d]imidazol-1-yl)acetamide] | 91 | 31.6
Cn1nc(NS(C)(=O)=O)c2c(Cl)ccc(-c3ccc(C#C[C@]4(C)CNCCO4)nc3[C@H](Cc3cc(F)cc(F)c3)NC(=O)Cn3nc(C(F)F)c4c3C(F)(F)[C@@H]3C[C@H]43)c21 [Compound 84, N—((S)-1-(3-(4-chloro-1-methyl-3-(methylsulfonamido)-1H-indazol-7-yl)-6-(((R)-2-methylmorpholin-2-yl)ethynyl)pyridin-2-yl)-2-(3,5-difluorophenyl)ethyl)-2-((3bS,4aR)-3-(difluoromethyl)-5,5-difluoro-3b,4,4a,5-tetrahydro-1H-cyclopropa[3,4]cyclopenta[1,2-c]pyrazol-1-yl)acetamide] | 88 | 6.9
CC(C)N1CCO[C@](C)(C#Cc2ccc(-c3ccc(Cl)c4c(NS(C)(=O)=O)nn(C)c34)c([C@H](Cc3cc(F)cc(F)c3)NC(=O)Cn3nc(C(F)F)c4c3C(F)(F)[C@@H]3C[C@H]43)n2)C1 [Compound 87, N—((S)-1-(3-(4-chloro-1-methyl-3-(methylsulfonamido)-1H-indazol-7-yl)-6-(((R)-4-isopropyl-2-methylmorpholin-2-yl)ethynyl)pyridin-2-yl)-2-(3,5-difluorophenyl)ethyl)-2-((3bS,4aR)-3-(difluoromethyl)-5,5-difluoro-3b,4,4a,5-tetrahydro-1H-cyclopropa[3,4]cyclopenta[1,2-c]pyrazol-1-yl)acetamide] | 100 | 19.5
Cn1nc(NS(C)(=O)=O)c2cccc(-c3ccc(C#CC4(O)CCC4)nc3[C@H](Cc3cc(F)cc(F)c3)NC(=O)Cn3nc(C(F)(F)F)c4c3C(F)(F)[C@@H]3C[C@H]43)c21 [Compound 24D, 2-((3bS,4aR)-5,5-difluoro-3-(trifluoromethyl)-3b,4,4a,5-tetrahydro-1H-cyclopropa[3,4]cyclopenta[1,2-c]pyrazol-1-yl)-N—((S)-2-(3,5-difluorophenyl)-1-(6-((1-hydroxycyclobutyl)ethynyl)-3-(1-methyl-3-(methylsulfonamido)-1H-indazol-7-yl)pyridin-2-yl)ethyl)acetamide] | 100 | 15.8
